Measurements: patent US20220088144A1, “SGLT-2 INHIBITORS OR IL-1R ANTAGONISTS FOR REDUCTION OF HYPOGLYCAEMIA AFTER BARIATRIC SURGERY” (UNIVERSITÄTSSPITAL BASEL, priority 2019, published 2022)

Assays:
[1] = Serum IL-1Ra level after anakinra injection; format: in vivo, human; conditions: average; 100 mg s.c.; increased from an average of 272 pg/ml
Source text: The secondary objectives are to evaluate whether treatment of empagliflozin (Jardiance®) or anakinra (Kineret®) have effects on the following aspects: • level of insulin secretion and sensitivity • levels of GLP-1, glucagon and C-peptide • levels of IL-6; IL-1Ra, CRP • scores in Edinburgh Hypoglycaemia Scale (clinical score for assessment of hypoglycemia), Stanford Sleepiness Scale (clinical score of assessment of sleepiness) as well as Sigstad Score (clinical score for early and late dumping symptoms) • Length of time and amount of glucose needed for restoring normoglycemia.
Individual body weights remained stable throughout the study period. […] Leukocyte and CRP levels were not elevated and remained stable throughout the trial.

bulk monocytes = assay: RNA sequencing of monocytes isolated from treated patients; set-up: species or system human; conditions: treatment compared to placebo
Method: Following the inventors' hypothesis of an overactivation of the innate immune system in patients experiencing post-bariatric hypoglycemia, they assessed transcriptional changes in innate immune cells from the inventors' patient population using an unbiased RNA sequencing approach. Therefore, the inventors isolated monocytes from peripheral blood sampled immediately before and 60 minutes (i.e. before rescue glucose application when needed) after ingestion of the mixed-meal on all three treatment days.
Blood samples were taken before and 60 minutes after meal intake. Due to scheduling conflicts, samples from two patients could not be processed. These samples are thus assumed to be missing at random. Of note, samples from patient 3 (sleeve gastrectomy) had already been processed for RNA sequencing before the final change of protocol. Sequencing data obtained from this patient were thus kept for the purpose of these analyses. Peripheral blood mononuclear cells were obtained by Ficoll density gradient centrifugation (Lymphoprep Fresenius Kabi, Norway). For 9 out of 11 patients, an additional step was added after density gradient centrifugation to pre-enrich monocytes by negative selection with CD3 human MicroBeads (#130-050-101; Miltenyi Biotec). The obtained cellular monocyte fractions were then incubated with FC-Block for 15 minutes at room temperature [(Human FcR TruStain FcX (Biolegend) REF 422302, compatible with flow cytometric staining with anti-human CD16 (clone 3G8)], and subsequently labeled with the following antibodies: APC Mouse anti-Human CD3 [HIT3a alpha] (#555342; BD Biosciences), FITC Mouse Anti-Human CD19 [HIB19 RUO] (#560994; BD Biosciences), PE-Cy5 Mouse Anti-Human CD56 [B159 RUO] (#560842; BD Biosciences), PE Mouse Anti-Human CD16 [3G8 RUO] (#560995; BD Biosciences), APC-Cy7 Mouse Anti-Human CD14 [MφP-9 RUO] (#561709; BD Biosciences).
Cells were then further enriched into the three monocyte subsets by fluorescence-activated cell sorting on a BD FACS-Aria III. Classical monocytes were defined as: single, live, CD56− CD19−CD3−CD14+CD16−, Intermediate monocytes were defined as: single, live CD56−CD19− CD3−CD14+CD16+ and non-classical monocytes were defined as: single, live CD56−CD19− CD3−CD14−CD16+. Bulk monocytes were defined as a combination-gate of the three subsets. For a representative example of the gating strategy see FIG. 13.
Total RNA was extracted from 500'000 bulk monocytes, isolated as described above using the Nucleo Spin RNA II Kit (Machery Nagel). Integrity of isolated total RNA was assessed on a 2100 Bioanalyzer System (Agilent Technologies, USA) with the Agilent RNA 6000 Pico Kit as recommended by the manufacturer. RNA concentration was determined with the Quant-iT RiboGreen RNA Assay Kit (Thermo Fisher Scientific, USA).
Purification of mRNA by poly(A)-selection, mRNA fragmentation and cDNA library preparation for RNA-Seq were performed using the TruSeq Stranded mRNA HT Sample Preparation Kit (Illumina, USA) according to the manufacturer's protocol. Before sequencing, quality and quantity analysis of prepared cDNA libraries were done on a Fragment Analyzer System (Advanced Analytical Technologies, USA). cDNA libraries were sequenced as single-end reads with 125 cycles on a HiSeq2500 sequencing system (Illumina, USA) at the Genomics Facility Basel. Of note, 2 samples failed during library preparation.
Initial quality checks were performed with FastQC version 0.11.4 (www.bioinformatics.babraham.ac.uk/projects/fastqc/). Adaptor clipping and quality-trimming of sequences was performed using Trimmomatic version 0.36 (Bolger, A. M., Lohse, M., and Usadel, B. (2014). Bioinformatics 30, 2114-2120) and reads were aligned to the GRCh38 reference genome using the splice aware aligner STAR version 2.7.0 (Dobin, A., et al. (2013). Bioinformatics 29, 15-21). Count-tables were produced using HTSeq version 0.6.1 (Anders, S., Pyl, P. T., and Huber, W. (2015). Bioinformatics 31, 166-169). […]

[2] = subcutaneous administration; cited from earlier work
[3] = cited from earlier work
[4] = cited from earlier work; remark: listed apart in the source
[5] = molecular target: T1, sodium glucose co-transporter 2 (SGLT2) (Homo sapiens, UniProt P31639); conditions: cited from earlier work
T1 construct: SGLT2 is predominantly expressed in the proximal tubule of the kidney; host or cells: endogenous transporter of the kidney proximal tubule (in vivo, patients)
T1 sequence (P31639 1-672): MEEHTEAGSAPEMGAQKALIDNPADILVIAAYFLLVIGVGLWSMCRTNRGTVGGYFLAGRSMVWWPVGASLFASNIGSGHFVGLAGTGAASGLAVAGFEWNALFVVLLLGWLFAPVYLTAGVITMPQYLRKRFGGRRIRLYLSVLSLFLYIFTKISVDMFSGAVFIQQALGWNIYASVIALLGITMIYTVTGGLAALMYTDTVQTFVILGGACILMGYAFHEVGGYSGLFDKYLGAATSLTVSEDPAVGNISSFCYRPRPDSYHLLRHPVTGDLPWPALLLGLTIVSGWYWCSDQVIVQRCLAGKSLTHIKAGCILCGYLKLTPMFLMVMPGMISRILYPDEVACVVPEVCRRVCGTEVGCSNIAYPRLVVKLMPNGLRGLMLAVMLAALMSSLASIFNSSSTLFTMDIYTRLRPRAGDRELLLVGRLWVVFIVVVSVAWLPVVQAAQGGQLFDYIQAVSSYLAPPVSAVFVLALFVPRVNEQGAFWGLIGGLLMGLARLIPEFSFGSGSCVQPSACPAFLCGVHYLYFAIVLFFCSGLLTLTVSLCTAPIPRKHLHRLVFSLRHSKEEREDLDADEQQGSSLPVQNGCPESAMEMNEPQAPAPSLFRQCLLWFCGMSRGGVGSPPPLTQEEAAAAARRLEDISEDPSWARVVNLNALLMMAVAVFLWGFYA

Compound | serum levels of IL-1Ra after injection of anakinra [1] [ng/mL] | number of downregulated genes in monocytes (bulk monocytes) | number of upregulated genes in monocytes (bulk monocytes) | total genes differentially regulated in monocytes (bulk monocytes) | time of maximum plasma concentration [2] [h] | reduction of WBC/ANC ([3]; share of patients) [%] | mild and transient local injection reactions ([3]; share of subjects treated) | mean Plasma-AUC in the steady state [4] [µM·h] | duration of glucosuria ([5]; after oral administration) | glucosuria ([5]; in vivo) [g glucose per day]
anakinra: CAS NO 143090-92-0; recombinant, non-glycosylated form of the human interleukin-1 receptor antagonist (IL-1 Ra), 153 amino acids | 43.836 | 71 | 163 | 234 | 4 | 2.4 | 20-50% | – | – | –
OC[C@H]1O[C@@H](c2ccc(Cl)c(Cc3ccc(O[C@H]4CCOC4)cc3)c2)[C@H](O)[C@@H](O)[C@@H]1O [empagliflozin] | – | 0 | 14 | 14 | – | – | – | 1.87 | at least 24 hours | 64
